Test results: the supplement of paper PMC13207355

How the values were obtained:
Details in all cases: exposure time: 72 h
E13 [1] = patient-derived glioblastoma stem cells of classical subtype; experiment: surviving fraction (nuclei count normalised to DMSO); higher = more cells surviving (less toxic)
E21 [2] = patient-derived glioblastoma stem cells of mesenchymal subtype; experiment: as above
E28 [3] = patient-derived glioblastoma stem cells of classical subtype; experiment: as above
E31 [4] = patient-derived glioblastoma stem cells of proneural subtype; experiment: as above
E34 [5] = patient-derived glioblastoma stem cells of proneural subtype; experiment: as above
E57 [6] = patient-derived glioblastoma stem cells of mesenchymal subtype; experiment: as above
FT3469 [7] = normal neural stem cell line; experiment: as above
E13 [8] = experiment: phenotypic distance (Euclidean, principal components) from DMSO controls (arbitrary units); higher = stronger morphological change
E21 [9] = experiment: as above
E28 [10] = experiment: as above
E31 [11] = experiment: as above
E34 [12] = experiment: as above
E57 [13] = experiment: as above
FT3469 [14] = experiment: as above
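Throughout, for phenotypic distance (Euclidean, principal components) from DMSO controls: cell Painting imaging in 384-well plates, CellProfiler features reduced to at least 20 principal components, Euclidean distance versus same-plate DMSO vehicle wells (0.1% v/v), median over six images per well.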
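Throughout, for surviving fraction (nuclei count normalised to DMSO): nuclei counted by high-content imaging of Hoechst-stained cells in laminin-coated 384-well plates, relative to 0.1% DMSO vehicle wells, with staurosporine as cell-death control.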

`CC(C)(Oc1ccc(C2CC2(Cl)Cl)cc1)C(=O)O` (stereo not drawn) [Ciprofibrate] was tested, and the surviving fraction (E13 [1]; 4.1 nM) was 0.885, the surviving fraction (E13 [1]; 12.3 nM) was 0.896 and the surviving fraction (E13 [1]; 37 nM) was 1.05. It also gave a surviving fraction (E13 [1]; 111.1 nM) of 0.961, a surviving fraction (E13 [1]; 333.3 nM) of 1.07 and a surviving fraction (E13 [1]; 1000 nM) of 1.13. For the same compound, the surviving fraction (E13 [1]; 3000 nM) was 1, the surviving fraction (E21 [2]; 4.1 nM) was 0.982 and the surviving fraction (E21 [2]; 12.3 nM) was 0.945. It also gave a surviving fraction (E21 [2]; 37 nM) of 0.898, a surviving fraction (E21 [2]; 111.1 nM) of 0.962 and a surviving fraction (E21 [2]; 333.3 nM) of 0.951. The surviving fraction (E21 [2]; 1000 nM) was 1.01, the surviving fraction (E21 [2]; 3000 nM) was 0.986 and the surviving fraction (E28 [3]; 4.1 nM) was 1.06. It also gave a surviving fraction (E28 [3]; 12.3 nM) of 0.804, a surviving fraction (E28 [3]; 37 nM) of 1.11 and a surviving fraction (E28 [3]; 111.1 nM) of 1.06. For the same compound, the surviving fraction (E28 [3]; 333.3 nM) was 1.12, the surviving fraction (E28 [3]; 1000 nM) was 1.02 and the surviving fraction (E28 [3]; 3000 nM) was 1.31. For the same compound, the surviving fraction (E31 [4]; 4.1 nM) was 1.18, the surviving fraction (E31 [4]; 12.3 nM) was 0.902 and the surviving fraction (E31 [4]; 37 nM) was 0.955. It also gave a surviving fraction (E31 [4]; 111.1 nM) of 0.771, a surviving fraction (E31 [4]; 333.3 nM) of 1.06 and a surviving fraction (E31 [4]; 1000 nM) of 0.889. For the same compound, the surviving fraction (E31 [4]; 3000 nM) was 1.06, the surviving fraction (E34 [5]; 4.1 nM) was 1.07 and the surviving fraction (E34 [5]; 12.3 nM) was 0.868. The surviving fraction (E34 [5]; 37 nM) was 0.894, the surviving fraction (E34 [5]; 111.1 nM) was 0.945 and the surviving fraction (E34 [5]; 333.3 nM) was 0.986. The surviving fraction (E34 [5]; 1000 nM) was 0.988, the surviving fraction (E34 [5]; 3000 nM) was 1.08 and the surviving fraction (E57 [6]; 4.1 nM) was 0.918. It also gave a surviving fraction (E57 [6]; 12.3 nM) of 1.04, a surviving fraction (E57 [6]; 37 nM) of 0.934 and a surviving fraction (E57 [6]; 111.1 nM) of 0.991. For the same compound, the surviving fraction (E57 [6]; 333.3 nM) was 1.03, the surviving fraction (E57 [6]; 1000 nM) was 0.983 and the surviving fraction (E57 [6]; 3000 nM) was 1.06. It also gave a surviving fraction (FT3469 [7]; 4.1 nM) of 0.859, a surviving fraction (FT3469 [7]; 12.3 nM) of 0.891 and a surviving fraction (FT3469 [7]; 37 nM) of 0.979. The surviving fraction (FT3469 [7]; 111.1 nM) was 0.92, the surviving fraction (FT3469 [7]; 333.3 nM) was 0.926 and the surviving fraction (FT3469 [7]; 1000 nM) was 0.886. For the same compound, the surviving fraction (FT3469 [7]; 3000 nM) was 0.947, the phenotypic distance (E13 [8]; 4.1 nM) was 0.888 and the phenotypic distance (E13 [8]; 12.3 nM) was 0.449. It also gave a phenotypic distance (E13 [8]; 37 nM) of 0.462, a phenotypic distance (E13 [8]; 111.1 nM) of 0.363 and a phenotypic distance (E13 [8]; 333.3 nM) of 0.62. The phenotypic distance (E13 [8]; 1000 nM) was 0.655, the phenotypic distance (E13 [8]; 3000 nM) was 0.745 and the phenotypic distance (E21 [9]; 4.1 nM) was 1.13. The phenotypic distance (E21 [9]; 12.3 nM) was 1.12, the phenotypic distance (E21 [9]; 37 nM) was 1.06 and the phenotypic distance (E21 [9]; 111.1 nM) was 0.721. It also gave a phenotypic distance (E21 [9]; 333.3 nM) of 0.996, a phenotypic distance (E21 [9]; 1000 nM) of 0.59 and a phenotypic distance (E21 [9]; 3000 nM) of 0.683. The phenotypic distance (E28 [10]; 4.1 nM) was 1.01, the phenotypic distance (E28 [10]; 12.3 nM) was 0.813 and the phenotypic distance (E28 [10]; 37 nM) was 0.864. The phenotypic distance (E28 [10]; 111.1 nM) was 0.823, the phenotypic distance (E28 [10]; 333.3 nM) was 0.782 and the phenotypic distance (E28 [10]; 1000 nM) was 0.776. For the same compound, the phenotypic distance (E28 [10]; 3000 nM) was 0.735, the phenotypic distance (E31 [11]; 4.1 nM) was 0.865 and the phenotypic distance (E31 [11]; 12.3 nM) was 0.469. It also gave a phenotypic distance (E31 [11]; 37 nM) of 0.691, a phenotypic distance (E31 [11]; 111.1 nM) of 0.704 and a phenotypic distance (E31 [11]; 333.3 nM) of 0.816. It also gave a phenotypic distance (E31 [11]; 1000 nM) of 0.949, a phenotypic distance (E31 [11]; 3000 nM) of 0.985 and a phenotypic distance (E34 [12]; 4.1 nM) of 0.978. The phenotypic distance (E34 [12]; 12.3 nM) was 0.753, the phenotypic distance (E34 [12]; 37 nM) was 0.669 and the phenotypic distance (E34 [12]; 111.1 nM) was 0.8. It also gave a phenotypic distance (E34 [12]; 333.3 nM) of 0.886, a phenotypic distance (E34 [12]; 1000 nM) of 0.675 and a phenotypic distance (E34 [12]; 3000 nM) of 1.09. It also gave a phenotypic distance (E57 [13]; 4.1 nM) of 0.79, a phenotypic distance (E57 [13]; 12.3 nM) of 0.645 and a phenotypic distance (E57 [13]; 37 nM) of 0.985. For the same compound, the phenotypic distance (E57 [13]; 111.1 nM) was 0.544, the phenotypic distance (E57 [13]; 333.3 nM) was 0.513 and the phenotypic distance (E57 [13]; 1000 nM) was 5.6. It also gave a phenotypic distance (E57 [13]; 3000 nM) of 0.728, a phenotypic distance (FT3469 [14]; 4.1 nM) of 0.922 and a phenotypic distance (FT3469 [14]; 12.3 nM) of 0.62. It also gave a phenotypic distance (FT3469 [14]; 37 nM) of 0.718, a phenotypic distance (FT3469 [14]; 111.1 nM) of 0.814 and a phenotypic distance (FT3469 [14]; 333.3 nM) of 0.871. The phenotypic distance (FT3469 [14]; 1000 nM) was 0.441 and the phenotypic distance (FT3469 [14]; 3000 nM) was 0.507.
